According to patent publication US20040110206A1, “Waveform modulated light emitting diode (LED) light source for use in a method of and apparatus for screening to identify drug candidates” (Bio TechPlex Corporation, priority 2002, published 2004):

Tested on: normal human bronchial epithelial cells (NHBE)
Assay: Cumulative dose kinetic responses of intracellular Ca++, Cl- and cell membrane potential (simultaneous Fluo-3, di-MEQ and RH421 fluorescence photon counting)
Format: cell-based
Procedure: Normal human bronchial/tracheal epithelial cells (NHBE, Clonetics) were cultured in T-25 cm^2 flasks at 37° C., 5% CO2 using Bronchial/Tracheal Epithelial Cell Growth Medium containing Retinoic Acid (BEGM, w/RA, Clonetics). When the NHBE cells in the T-25 flasks reached 60%-80% confluency, the cells were passaged using a seeding density of 3500 cells/cm^2. A portion of the cells was passaged in T-25 flasks again while the remaining cells were seeded on UV-exposed Vitrogen (pH balanced 1:1 BEGM to Vitrogen) coated 4-well cover glass chambers (LabTek II). NHBE cells normally attached to the collagen-coated cover glass chamber within 24 hrs. Prior to these cells reaching 60% confluency, they were used for all the experiments described below. Cells used in all the experiments were either 2nd or 3rd passage cells maintained in Bronchial/Tracheal Epithelial Cell Growth Medium with Retinoic Acid (BEGM, w/RA, Clonetics).
The following procedures for loading the cells with fluorophore were employed. Balanced Hank's (BH) solution without phenol red was used as the medium for all the fluorophore preparations and cell washings unless stated otherwise. Fluo-3 (a Ca^++ indicator), di-MEQ (a Cl^− indicator) and RH421 (a cell membrane potential indicator) were loaded into cells sequentially at room temperature. Cells were first incubated with 8 μM Fluo-3 solution for 60 minutes, followed by incubating with 50 μM di-MEQ for 5 minutes and then finally with 10 μM RH421 for 5 minutes. Extraneous dyes were washed with BH solution between each fluorophore loading procedure. The cells were allowed to stabilize in BEGM for a minimum of 15 minutes at room temperature prior to the beginning of each experiment.
Experiments were performed at room temperature. All tested agents were prepared in Balanced Hank's Solution. One of the wells of the cover glass chamber was placed on the stage of the inverted microscope and the cells loaded with the fluorophores were visually focused with the violet, green and orange emitted light from the cells approximately in the same focal plane. At a sampling frequency of 100 Hz, cells with the following photon counts were chosen for the study: 20 to 50 counts per channel (cpc) for Ca^++ fluorescence, 70 to 200 cpc for Cl^− fluorescence, and 20 to 50 cpc for cell membrane potential fluorescence. After establishing a 2 minute baseline, increasing doses of the agent of interest were added topically to the wells 2 minutes apart. At the end of each experiment, a toxic dose of the agent of interest was added to the sample to either shrink or swell the cells beyond their normal cell volume regulatory range. This caused the fluorescence signals of each of these fluorophores to reach either maximum or minimum values. […] Background fluorescence was recorded using a cell free area of the same well. If the signal to background ratio was not higher than a factor of 10, the experiments were also discarded.
The kinetic responses were measured as photon counts acquired in 10 ms intervals over>800 seconds. […] The correlation of these events and their kinetics, observations that can only be made with the present invention, provides unique insights into the mechanism by which Glibenclamide affects the cells.
UTP is a ligand to the p2Y receptor. The kinetic responses were measured as photon counts acquired in 10 ms intervals over >800 seconds.
Hyperpolarization of the cell membrane can also be induced via different cellular mechanisms such as by decreasing intracellular potassium. […] The kinetic responses were measured as photon counts acquired in 10 ms intervals over >900 seconds. It should be noted that the relative potencies of these agents in terms of the mechanisms for eliciting the temporal responses, the duration of the agent actions and the magnitude of hyperpolarization of the cell membrane can be compared and monitored for the first time. […]

## COc1ccc(Cl)cc1C(=O)NCCc1ccc(S(=O)(=O)NC(=O)NC2CCCCC2)cc1 [Glibenclamide]
500 μM
  intracellular Ca++ response: rapid increase
  intracellular Cl- response: simultaneous drop
  membrane potential response: simultaneous increase
Glibenclamide 25 μM to 500 μM cumulative
  cell membrane potential response: hyperpolarized the cell membrane
Glibenclamide 25 μM to 500 μM cumulative, MEQ fluorescence inversely proportional to [Cl-]i
  [Cl-]i response: increased
Concentrations below 500 μM
  intracellular Ca++ response: little affected
  intracellular Cl- response: declines as Glibenclamide concentration increases
  membrane potential response: little affected

## O=c1ccn([C@@H]2O[C@H](COP(=O)(O)OP(=O)(O)OP(=O)(O)O)[C@@H](O)[C@H]2O)c(=O)[nH]1 [UTP, uridine triphosphate]
0.1 mM and 1 mM
  intracellular Cl- response: essentially no changes
  membrane potential response: essentially no changes
0.1 mM and 1 mM, increase followed by a measurable rate of decline
  intracellular Ca++ response: rapid increase
